The target of test [1] is T1, Bma-SLO-1A (SLO-1 K channel, splice variant A) (Brugia malayi, UniProt A0A0H5S223).
T1 construct: full-length slo-1a splice variant
Briefly: two-electrode voltage clamp, Xenopus laevis oocytes expressing slo-1a (small but detectable outward current). It is filed as cell-based. An excerpt: two-electrode voltage clamp, Xenopus laevis oocytes expressing slo-1a (small but detectable outward current) on Bma-SLO-1A (SLO-1 K channel, splice variant A) | When we expressed slo-1a, or slo-1a with slo-1f (Fig 4C & 4D), we found much smaller, but still detectable currents.
(In general: Two-electrode voltage clamp holds a large cell at a set potential and records current.)

Test [2] deals with T2, Bma-SLO-1F (SLO-1 K channel, splice variant F) (Brugia malayi, UniProt A0A0J9Y9H3).
T2 construct: full-length slo-1f splice variant
In words: two-electrode voltage clamp, Xenopus laevis oocytes expressing slo-1f (activation of outward current). It counts as cell-based.

As usually defined, the EC50 is the concentration at which the effect is half-maximal. Lower therefore signals higher potency in that assay.

Regarding `CC(C)C[C@H]1C(=O)O[C@H](Cc2ccc(N3CCOCC3)cc2)C(=O)N(C)[C@@H](CC(C)C)C(=O)O[C@H](C)C(=O)N(C)[C@@H](CC(C)C)C(=O)O[C@H](Cc2ccc(N3CCOCC3)cc2)C(=O)N(C)[C@@H](CC(C)C)C(=O)O[C@H](C)C(=O)N1C` [emodepside], the results for the EC50 in test [1] and in test [2] were over 30 µM and 5 ± 1 µM, respectively.

For the origin of these results see PMC6779273, “Emodepside has sex-dependent immobilizing effects on adult Brugia malayi due to a differentially spliced binding pocket in the RCK1 region of the SLO-1 K channel” (PLoS Pathogens, 2019).
